Target: T1, Broad substrate specificity ATP-binding cassette transporter ABCG2 (Homo sapiens, UniProt Q9UNQ0)
T1 sequence (Q9UNQ0 whole entry): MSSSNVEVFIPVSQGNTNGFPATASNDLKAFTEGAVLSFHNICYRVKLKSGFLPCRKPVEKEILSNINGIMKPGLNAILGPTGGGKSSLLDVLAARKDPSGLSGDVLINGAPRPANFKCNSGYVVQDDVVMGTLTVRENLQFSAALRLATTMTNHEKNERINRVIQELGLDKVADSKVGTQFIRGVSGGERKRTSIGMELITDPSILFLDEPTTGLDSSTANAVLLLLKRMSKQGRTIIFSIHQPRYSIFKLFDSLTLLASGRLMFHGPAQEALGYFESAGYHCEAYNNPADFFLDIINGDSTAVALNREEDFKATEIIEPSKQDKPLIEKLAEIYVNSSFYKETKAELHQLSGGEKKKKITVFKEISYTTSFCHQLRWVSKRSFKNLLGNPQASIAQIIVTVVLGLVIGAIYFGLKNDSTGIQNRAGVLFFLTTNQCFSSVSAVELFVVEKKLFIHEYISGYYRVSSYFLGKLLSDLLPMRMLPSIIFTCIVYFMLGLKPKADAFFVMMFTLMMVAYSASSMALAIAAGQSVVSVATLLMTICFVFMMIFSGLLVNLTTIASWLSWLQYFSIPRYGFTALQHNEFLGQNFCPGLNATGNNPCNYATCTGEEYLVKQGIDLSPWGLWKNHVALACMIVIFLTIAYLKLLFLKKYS
Assay: TP_TRANSPORTER: drug resistance in BCRP-expressing PA317 cells
Format: functional, cell-based
Conditions: mouse

Structure (SMILES)	Activity
CCc1c2c(nc3ccc(O)cc13)-c1cc3c(c(=O)n1C2)COC(=O)[C@]3(O)CC [7-ETHYL-10-HYDROXYCAMPTOTHECIN]	substrate []
C[C@]12CC[C@@H]3c4ccc(O)cc4CC[C@H]3[C@@H]1CCC2=O [ESTRONE]	inhibitor []
COc1ccc2c3c([nH]c2c1)[C@H](C=C(C)C)N1C(=O)[C@@H]2CCCN2C(=O)[C@@H]1C3 [FUMITREMORGIN]	inhibitor []
O=C1c2c(O)ccc(O)c2C(=O)c2c(NCCNCCO)ccc(NCCNCCO)c21 [MITOXANTRONE]	substrate []

Reference: ChEMBL document CHEMBL2074406, “Single amino acid substitutions in the transmembrane domains of breast cancer resistance protein (BCRP) alter cross resistance patterns in transfectants” (Int J Cancer, 2003)
